Data taken from patent US10251902B2, “Pharmaceutical composition for treating or preventing neuropsychiatric disease, containing flavone-6-C-glucose derivatives as active ingredients” (priority 2013, dated 2019).

Tests used:
[1] = system: model of memory impairment induced by scopolamine; assay: Y-maze test in scopolamine-treated mice; type: in vivo, ICR mice; settings: donepezil 5 mg/Kg (Control 1), scopolamine 1 mg/Kg i.p.
Description: (§1) An experiment was conducted to confirm effects of swertisin or isoorientin, and extracts of Swertia pseudochinensis or Swertia japonica containing the same prepared in Examples 1 to 3 in treating dementia by using a model of memory impairment induced by scopolamine. Detailed method follows.
(§2) Six-week old ICR mice in about 26 g to 28 g (Orientbio Inc, Republic of Korea) were received water and feed without constraint and adapted for 5 days under an environment having about 23±1° C. of temperature, about 60±10% of humidity and 12-hour light/dark cycle (animal laboratory at College of Pharmacy, Kyung-Hee University), and then used for the experiment.
A Y-maze was prepared for the experiment. The Y-maze has 3 branches and each branch has 42 cm of length, 3 cm of width and 12 cm of height. Angle between any two arms is 120 degrees and the arms were made of black polyvinyl resin.
The mice prepared in the above 1) were separated into 5 groups (10 mice per each group) comprised of drug administration groups 1 and 2, and controls 1 to 3.
The swertisin prepared in Example 3 (8 mg) was dissolved in 4 mL of 10% Tween 80 (Polyoxyethylene sorbitan monooleate: Sigma, U.S.A.), and administered to the drug administration groups 1 and 2 in an amounts of 5 mg/Kg and 10 mg/Kg respectively. Meanwhile, 5 mg/Kg of donepezil was administered to the control 1, and 0.15 mL of 10% Tween 80 was administered to the controls 2 and 3 respectively.
About 30 minutes later, 1 mg/Kg of scopolamine, which was dissolved in distilled water, was intraperitoneally administered to the drug administration groups 1 and 2, and controls 1 and 2 (Ebert, U. et al., Eur. J. Clin. Invest., 28, pp. 944-949, 1998), and 0.9% of saline solution was intraperitoneally administered to the control 3.
After 30 minutes, mice of the drug administration groups 1 and 2, and the controls 1-3 were carefully located on each branches of the Y-maze, which was divided as A, B and C respectively, and let the mice move freely for 8 minutes, and then recorded branches where mice have entered. The entrance was recorded when the entire body (i.e. including the tail) has completely entered. It was also recorded when the mice entered again into the branch that the mice have entered before.
One point was scored when the mouse sequentially entered into 3 different branches (actual alternation). Alternation behavior is defined as sequentially entering into every 3 branch, and it was converted into % via Equation 1 below (Sarter, M. et al., Psychopharmacology., 94, pp. 491-495, […]).

[2] = system: model of memory impairment induced by scopolamine; assay: Passive avoidance test in scopolamine-induced memory impairment model; type: in vivo, ICR mice; settings: for Main Experiment / Passive Avoidance Learning: scopolamine 1 mg/Kg i.p.; for Main Experiment: latency 24 h after learning; for latency time extended compared to that of the control 2: main experiment, control 2 = scopolamine
Description: as §1, §2
An apparatus for measuring passive avoidance reaction was prepared. The apparatus has 2 separated chambers (the first and second chambers) and there is a guillotine-shaped passage that connects the first chamber and the second chamber. The first chamber was maintained brightly by using a light, and the second chamber was maintained darkly. A grid was installed on the floor of the second chamber. The grid generates 0.5 mA of electric shock for 3 seconds when the laboratory animal moved into the dark chamber.
About 30 minutes later, 1 mg/Kg of scopolamine, which was dissolved in distilled water, was intraperitoneally administered to the drug administration groups 1 to 4 and controls 1 and 2 (Ebert, U. et al., Eur. J. Clin. Invest., 28, pp 944-949, 1998), and 0.9% of saline solution was intraperitoneally administered to the control 3. After 30 minutes, passive avoidance learning was conducted on the drug administration groups 1-4 and controls 1-3. In detail, the mice were located in the first chamber (i.e. bright space) and the passage was open after about 20 seconds of observation time, and then latency time of the mice moving to the second chamber (i.e. dark space) was measured.
Twenty-four hours after the passive avoidance learning, a main experiment was conducted on the drug administration groups 1-4 and controls 1-3. Latency time of the mice of each group moving their 4 legs into the dark space after 10 seconds of observation time from opening of the guillotine-shaped passage was measured up to 300 seconds. It means that the passive avoidance learning and memory are better if the latency time is longer.
(§3) The passive avoidance test was conducted on the drug administration groups 1-4 and controls 1-3 in the same manner as the method explained above except that swertisin, which is one of the flavone-6-C-β-D-glucose derivatives prepared in Example 3, was dissolved in 10% Tween 80 and administered to the drug administration groups 1-4 in amounts of 1.25 mg/kg, 2.5 mg/kg, 5 mg/kg and 10 mg/kg respectively.
as §3, with “Experimental Example 1-1” for “the method explained above”, “isoorientin,” for “swertisin,”
(§4) The passive avoidance test was conducted on the drug administration groups 1-3 and controls 1-3 in the same manner as Experimental Example 1-1 except that a 70% ethanol extract of Swertia japonica prepared in Example 1, was dissolved in 10% Tween and administered to the drug administration groups 1-3 in amounts of 100 mg/kg, 200 mg/kg and 400 mg/kg respectively.
as §4, with “pseudochinensis” for “japonica”, “2,” for “1,”, “Tween 80” for “Tween”

**Q.** With `COc1cc2c(cc1OC)C(=O)C(CC1CCN(Cc3ccccc3)CC1)C2` (stereo not drawn) [Donepezil, donepezil, reference compound] as the compound, how does the “Alternation Behavior (%)” value ([1]; Table 6, 8 minutes in Y-maze) read?
**A.** 61.49 ± 5.447%

**Q.** And the “Total Entry” value ([1]; Table 7, total number of entry to each branch, 8 minutes)?
**A.** 29.30 ± 4.296

**Q.** And the “Main Experiment” value ([2]; Table 2, Control 1 (Donepezil), dose not given)?
**A.** 138.7 ± 34.03 s

**Q.** What about the “Passive Avoidance Learning” value ([2]; Table 2, Control 1 (Donepezil), dose not given, learning trial) of the same compound?
**A.** 25.60 ± 10.83 s

**Q.** What about the “Main Experiment” value ([2]; Table 3, Control 1 (Donepezil), dose not given) of the same compound?
**A.** 127.8 ± 11.43 s

**Q.** And the “Passive Avoidance Learning” value ([2]; Table 3, Control 1 (Donepezil), dose not given, learning trial)?
**A.** 21.30 ± 4.964 s

**Q.** What about the “Main Experiment” value ([2]; Table 4, Control 1 (Donepezil), dose not given) of the same compound?
**A.** 169.6 ± 79.98

**Q.** And the “Passive Avoidance Learning” value ([2]; Table 4, Control 1 (Donepezil), dose not given, learning trial)?
**A.** 26.40 ± 16.23

**Q.** And the “Main Experiment” value ([2]; Table 5, Control 1 (Donepezil), dose not given)?
**A.** 159.6 ± 65.51

**Q.** What about the “Passive Avoidance Learning” value ([2]; Table 5, Control 1 (Donepezil), dose not given, learning trial) of the same compound?
**A.** 28.10 ± 19.02

**Q.** Which “Main Experiment” value ([2]; Table 3, isoorientin 1.25 mg/kg, up to 300 seconds) does the source give for `O=c1cc(-c2ccc(O)c(O)c2)oc2cc(O)c([C@@H]3O[C@H](CO)[C@@H](O)[C@H](O)[C@H]3O)c(O)c12` [isoorientin] here?
**A.** 41.00 ± 7.988 s

**Q.** What about the “Passive Avoidance Learning” value ([2]; Table 3, isoorientin 1.25 mg/kg, latency in learning trial) of the same compound?
**A.** 43.60 ± 5.340 s

**Q.** What about the “Main Experiment” value ([2]; Table 3, isoorientin 2.5 mg/kg, up to 300 seconds) of the same compound?
**A.** 80.90 ± 19.44 s

**Q.** And the “Passive Avoidance Learning” value ([2]; Table 3, isoorientin 2.5 mg/kg, latency in learning trial)?
**A.** 40.00 ± 5.499 s

**Q.** What about the “Main Experiment” value ([2]; Table 3, isoorientin 5 mg/kg, up to 300 seconds) of the same compound?
**A.** 119.3 ± 73.43 s

**Q.** What about the “Passive Avoidance Learning” value ([2]; Table 3, isoorientin 5 mg/kg, latency in learning trial) of the same compound?
**A.** 35.20 ± 5.236 s

**Q.** What about the “Main Experiment” value ([2]; Table 3, isoorientin 10 mg/kg, up to 300 seconds) of the same compound?
**A.** 102.8 ± 15.89 s

**Q.** And the “Passive Avoidance Learning” value ([2]; Table 3, isoorientin 10 mg/kg, latency in learning trial)?
**A.** 26.80 ± 5.085 s

**Q.** And the “latency time extended compared to that of the control 2” value (shortened to “latency time extended compared to that”) ([2]; isoorientin 2.5 mg/Kg)?
**A.** about 2 fold

**Q.** What about the “latency time extended compared to that” value ([2]; isoorientin 5 mg/Kg) of the same compound?
**A.** about 3 fold

**Q.** And the “latency time extended compared to that” value ([2]; isoorientin 10 mg/Kg)?
**A.** about 2.5 fold
